Laboratory results taken from patent publication US10844077B2, “Thiazolyl-containing compounds for treating proliferative diseases” (Dana-Farber Cancer Institute, Inc., priority 2014, dated 2020).
“And” between values parts separate entries of the source, which are not always exact repeats. Identical values can stand only once. Like-named read-outs stand apart in the source and are kept apart here.

Experiments:
Assay type in all cases: cell-based
kinases in BCWM.1 cells [1] = molecular target: kinases in BCWM.1 cells (Homo sapiens, UniProt P42338); details: PIK3CB; ATP; 1 μM, 90 min; GF
Experimental: (§1) The cells were harvested and lysed. […] Bound kinases were identified and quantitated by ACTIVX as described in Patricelli et al., Biochemistry, 2007, 46(2): 350-358. The compounds were tested in duplicates against duplicate or quadruplicate control samples.

kinases in BCWM.1 cells [2] = molecular target: kinases in BCWM.1 cells (Homo sapiens, UniProt Q9BZL6); details: PKD2; Lys1; 1 μM, 90 min; GF
Experimental: as §1

kinases in BCWM.1 cells [3] = molecular target: kinases in BCWM.1 cells (Homo sapiens, UniProt Q13464); details: ROCK1; Protein Kinase Domain; 1 μM, 90 min; GF
Experimental: as §1

kinases in BCWM.1 cells [4] = molecular target: kinases in BCWM.1 cells (Homo sapiens, UniProt Q14289); details: PYK2; Activation Loop; 1 μM, 90 min; GF
Experimental: as §1

kinases in BCWM.1 cells [5] = molecular target: kinases in BCWM.1 cells (Homo sapiens, UniProt Q9UKI8); details: TLK1; Lys2; 1 μM, 90 min; GF
Experimental: as §1

kinases in BCWM.1 cells [6] = molecular target: kinases in BCWM.1 cells (Homo sapiens, UniProt Q58A45); details: PAN3; Protein Kinase Domain; 1 μM, 90 min; GF
Experimental: as §1

kinases in BCWM.1 cells [7] = molecular target: kinases in BCWM.1 cells (Homo sapiens, UniProt P29597); details: TYK2 domain2; Activation Loop; 1 μM, 90 min; GF
Experimental: as §1

kinases in BCWM.1 cells [8] = molecular target: kinases in BCWM.1 cells (Homo sapiens, UniProt Q86SG6); details: NEK8; Lys2; 1 μM, 90 min; GF
Experimental: as §1

kinases in BCWM.1 cells [9] = molecular target: kinases in BCWM.1 cells (Homo sapiens, UniProt Q15349); details: RSK3 domain1; Lys2; 1 μM, 90 min; GF
Experimental: as §1

kinases in BCWM.1 cells [10] = molecular target: kinases in BCWM.1 cells (Homo sapiens, UniProt O00750); details: PIK3C2B; ATP; 1 μM, 90 min; GF
Experimental: as §1

kinases in BCWM.1 cells [11] = molecular target: kinases in BCWM.1 cells (Homo sapiens, UniProt P51955); details: NEK2; Lys2; 1 μM, 90 min; GF
Experimental: as §1

kinases in BCWM.1 cells [12] = molecular target: kinases in BCWM.1 cells (Homo sapiens, UniProt Q9UBE8); details: NLK; Lys2; 1 μM, 90 min; GF
Experimental: as §1

kinases in BCWM.1 cells [13] = molecular target: kinases in BCWM.1 cells (Homo sapiens, UniProt Q8NEB9); details: PIK3C3; ATP; 1 μM, 90 min; GF
Experimental: as §1

kinases in BCWM.1 cells [14] = molecular target: kinases in BCWM.1 cells (Homo sapiens, UniProt O15530); details: PDK1; Lys1; 1 μM, 90 min; GF
Experimental: as §1

kinases in BCWM.1 cells [15] = molecular target: kinases in BCWM.1 cells (Homo sapiens, UniProt Q9Y2I7); details: PIP5K3; ATP; 1 μM, 90 min; GF
Experimental: as §1

kinases in BCWM.1 cells [16] = molecular target: kinases in BCWM.1 cells (Homo sapiens, UniProt P23443); details: p70S6K; Lys2; 1 μM, 90 min; GF
Experimental: as §1

kinases in BCWM.1 cells [17] = molecular target: kinases in BCWM.1 cells (Homo sapiens, UniProt Q9UKE5); details: ZC2/TNIK; Lys1; 1 μM, 90 min; GF
Experimental: as §1

kinases in BCWM.1 cells [18] = molecular target: kinases in BCWM.1 cells (Homo sapiens, UniProt Q9BYT3); details: STK33; Lys2; 1 μM, 90 min; GF
Experimental: as §1

kinases in BCWM.1 cells [19] = molecular target: kinases in BCWM.1 cells (Homo sapiens, UniProt Q9NYL2); details: ZAK; Lys1; 1 μM, 90 min; GF
Experimental: as §1

kinases in BCWM.1 cells [20] = details: 1 μM, GF
Experimental: as §1

kinases in BCWM.1 cells [21] = molecular target: kinases in BCWM.1 cells (Homo sapiens, UniProt Q9Y2H1); details: NDR2; Lys2; 1 μM, 90 min; GF
Experimental: as §1

kinases in BCWM.1 cells [22] = molecular target: kinases in BCWM.1 cells (Homo sapiens, UniProt P53350); details: PLK1; Lys1; 1 μM, 90 min; GF
Experimental: as §1

kinases in BCWM.1 cells [23] = molecular target: kinases in BCWM.1 cells (Homo sapiens, UniProt Q16816); details: PHKg1; Protein Kinase Domain; 1 μM, 90 min; GF
Experimental: as §1

kinases in BCWM.1 cells [24] = molecular target: kinases in BCWM.1 cells (Homo sapiens, UniProt Q96Q15); details: SMG1; ATP; 1 μM, 90 min; GF
Experimental: as §1

kinases in BCWM.1 cells [25] = molecular target: kinases in BCWM.1 cells (Homo sapiens, UniProt O75385); details: ULK1; Lys2; 1 μM, 90 min; GF
Experimental: as §1

kinases in BCWM.1 cells [26] = molecular target: kinases in BCWM.1 cells (Homo sapiens, UniProt O94921)
Experimental: as §1

Chain of kinases in BCWM.1 cells (Homo sapiens, UniProt Q9Y2I7) (Q9Y2I7 2-2098 limits assumed): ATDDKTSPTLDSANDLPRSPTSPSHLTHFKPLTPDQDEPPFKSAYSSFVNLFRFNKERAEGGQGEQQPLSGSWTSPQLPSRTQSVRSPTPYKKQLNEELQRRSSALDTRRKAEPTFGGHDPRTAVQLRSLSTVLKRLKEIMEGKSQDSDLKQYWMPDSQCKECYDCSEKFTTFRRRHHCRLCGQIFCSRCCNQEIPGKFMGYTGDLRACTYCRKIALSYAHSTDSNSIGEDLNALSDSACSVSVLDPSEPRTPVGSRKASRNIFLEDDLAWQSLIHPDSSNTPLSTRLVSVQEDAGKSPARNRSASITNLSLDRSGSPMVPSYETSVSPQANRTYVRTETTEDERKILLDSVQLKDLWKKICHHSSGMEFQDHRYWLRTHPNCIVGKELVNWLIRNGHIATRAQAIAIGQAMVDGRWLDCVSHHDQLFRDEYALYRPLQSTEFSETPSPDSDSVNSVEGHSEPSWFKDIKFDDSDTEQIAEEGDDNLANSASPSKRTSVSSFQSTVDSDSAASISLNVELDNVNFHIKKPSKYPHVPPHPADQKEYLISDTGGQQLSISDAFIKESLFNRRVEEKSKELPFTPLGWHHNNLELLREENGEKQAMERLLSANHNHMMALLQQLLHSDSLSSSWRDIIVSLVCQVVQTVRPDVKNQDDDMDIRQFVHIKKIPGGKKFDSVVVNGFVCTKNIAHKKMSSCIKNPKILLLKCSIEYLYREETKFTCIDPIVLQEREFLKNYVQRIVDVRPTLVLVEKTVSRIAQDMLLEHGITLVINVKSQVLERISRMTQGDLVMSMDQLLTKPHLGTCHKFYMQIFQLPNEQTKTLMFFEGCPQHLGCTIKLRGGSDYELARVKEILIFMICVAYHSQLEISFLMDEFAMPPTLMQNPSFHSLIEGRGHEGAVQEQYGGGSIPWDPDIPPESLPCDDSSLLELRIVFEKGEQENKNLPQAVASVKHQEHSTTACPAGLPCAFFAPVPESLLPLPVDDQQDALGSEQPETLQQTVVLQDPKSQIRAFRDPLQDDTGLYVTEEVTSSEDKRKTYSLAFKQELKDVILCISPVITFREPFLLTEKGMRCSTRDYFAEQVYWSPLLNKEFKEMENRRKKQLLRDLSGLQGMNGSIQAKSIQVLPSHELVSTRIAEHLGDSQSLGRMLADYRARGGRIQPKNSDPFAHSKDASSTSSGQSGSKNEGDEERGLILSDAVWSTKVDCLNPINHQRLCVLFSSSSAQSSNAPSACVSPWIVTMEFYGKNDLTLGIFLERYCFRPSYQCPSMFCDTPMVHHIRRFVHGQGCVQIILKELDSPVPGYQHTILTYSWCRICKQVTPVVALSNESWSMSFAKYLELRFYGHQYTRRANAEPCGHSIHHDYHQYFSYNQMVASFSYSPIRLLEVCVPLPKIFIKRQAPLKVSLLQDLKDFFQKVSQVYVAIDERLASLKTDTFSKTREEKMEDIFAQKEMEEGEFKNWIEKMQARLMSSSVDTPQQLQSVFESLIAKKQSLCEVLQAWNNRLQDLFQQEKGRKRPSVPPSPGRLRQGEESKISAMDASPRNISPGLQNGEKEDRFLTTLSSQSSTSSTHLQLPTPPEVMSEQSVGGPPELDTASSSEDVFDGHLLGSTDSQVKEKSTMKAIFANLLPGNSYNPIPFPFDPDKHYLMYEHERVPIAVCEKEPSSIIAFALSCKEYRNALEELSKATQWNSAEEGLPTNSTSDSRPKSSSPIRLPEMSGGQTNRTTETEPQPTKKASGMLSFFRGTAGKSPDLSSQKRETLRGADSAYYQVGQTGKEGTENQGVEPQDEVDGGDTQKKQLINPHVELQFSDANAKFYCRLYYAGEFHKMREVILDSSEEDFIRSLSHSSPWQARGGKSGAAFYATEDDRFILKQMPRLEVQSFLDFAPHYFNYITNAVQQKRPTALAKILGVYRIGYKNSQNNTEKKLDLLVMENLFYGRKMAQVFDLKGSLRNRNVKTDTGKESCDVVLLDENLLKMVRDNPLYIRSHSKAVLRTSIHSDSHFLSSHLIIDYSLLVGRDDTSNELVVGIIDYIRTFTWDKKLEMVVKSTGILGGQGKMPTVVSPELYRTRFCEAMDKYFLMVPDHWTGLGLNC
Chain of kinases in BCWM.1 cells (Homo sapiens, UniProt Q13464) (Q13464 2-1354 limits assumed): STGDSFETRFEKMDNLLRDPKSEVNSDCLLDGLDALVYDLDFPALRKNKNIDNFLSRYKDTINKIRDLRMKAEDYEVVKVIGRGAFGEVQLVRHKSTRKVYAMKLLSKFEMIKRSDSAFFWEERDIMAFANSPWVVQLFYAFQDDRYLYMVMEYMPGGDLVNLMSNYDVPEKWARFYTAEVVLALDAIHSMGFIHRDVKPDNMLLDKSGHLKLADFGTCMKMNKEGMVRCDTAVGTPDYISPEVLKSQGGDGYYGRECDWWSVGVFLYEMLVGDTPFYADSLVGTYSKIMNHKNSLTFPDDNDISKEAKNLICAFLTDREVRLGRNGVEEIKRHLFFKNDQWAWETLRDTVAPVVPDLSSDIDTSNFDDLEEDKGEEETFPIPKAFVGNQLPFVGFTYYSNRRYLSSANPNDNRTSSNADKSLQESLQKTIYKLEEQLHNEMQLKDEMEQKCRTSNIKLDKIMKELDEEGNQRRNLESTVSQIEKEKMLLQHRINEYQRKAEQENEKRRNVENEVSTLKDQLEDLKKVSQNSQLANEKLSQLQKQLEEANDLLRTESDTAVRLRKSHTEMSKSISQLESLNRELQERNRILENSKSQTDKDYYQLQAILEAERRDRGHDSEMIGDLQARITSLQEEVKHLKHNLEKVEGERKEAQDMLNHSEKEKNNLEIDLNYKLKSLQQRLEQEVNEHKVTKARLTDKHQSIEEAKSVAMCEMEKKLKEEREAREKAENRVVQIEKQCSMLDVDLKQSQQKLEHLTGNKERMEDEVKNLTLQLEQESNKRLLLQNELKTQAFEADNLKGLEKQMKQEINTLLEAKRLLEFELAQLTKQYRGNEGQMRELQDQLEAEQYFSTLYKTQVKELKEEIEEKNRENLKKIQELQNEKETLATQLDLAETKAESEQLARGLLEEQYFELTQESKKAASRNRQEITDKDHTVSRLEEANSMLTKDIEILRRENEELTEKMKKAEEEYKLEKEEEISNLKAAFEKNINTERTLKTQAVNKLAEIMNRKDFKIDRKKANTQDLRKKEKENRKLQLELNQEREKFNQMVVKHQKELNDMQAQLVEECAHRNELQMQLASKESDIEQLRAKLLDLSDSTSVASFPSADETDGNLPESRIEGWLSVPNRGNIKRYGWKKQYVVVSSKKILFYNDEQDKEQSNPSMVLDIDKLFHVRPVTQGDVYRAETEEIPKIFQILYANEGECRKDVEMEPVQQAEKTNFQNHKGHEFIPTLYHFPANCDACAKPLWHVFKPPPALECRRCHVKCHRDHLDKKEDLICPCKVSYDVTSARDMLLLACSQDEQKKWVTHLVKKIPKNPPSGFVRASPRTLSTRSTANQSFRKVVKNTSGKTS
Chain of kinases in BCWM.1 cells (Homo sapiens, UniProt Q9NYL2) (Q9NYL2 2-800 limits assumed): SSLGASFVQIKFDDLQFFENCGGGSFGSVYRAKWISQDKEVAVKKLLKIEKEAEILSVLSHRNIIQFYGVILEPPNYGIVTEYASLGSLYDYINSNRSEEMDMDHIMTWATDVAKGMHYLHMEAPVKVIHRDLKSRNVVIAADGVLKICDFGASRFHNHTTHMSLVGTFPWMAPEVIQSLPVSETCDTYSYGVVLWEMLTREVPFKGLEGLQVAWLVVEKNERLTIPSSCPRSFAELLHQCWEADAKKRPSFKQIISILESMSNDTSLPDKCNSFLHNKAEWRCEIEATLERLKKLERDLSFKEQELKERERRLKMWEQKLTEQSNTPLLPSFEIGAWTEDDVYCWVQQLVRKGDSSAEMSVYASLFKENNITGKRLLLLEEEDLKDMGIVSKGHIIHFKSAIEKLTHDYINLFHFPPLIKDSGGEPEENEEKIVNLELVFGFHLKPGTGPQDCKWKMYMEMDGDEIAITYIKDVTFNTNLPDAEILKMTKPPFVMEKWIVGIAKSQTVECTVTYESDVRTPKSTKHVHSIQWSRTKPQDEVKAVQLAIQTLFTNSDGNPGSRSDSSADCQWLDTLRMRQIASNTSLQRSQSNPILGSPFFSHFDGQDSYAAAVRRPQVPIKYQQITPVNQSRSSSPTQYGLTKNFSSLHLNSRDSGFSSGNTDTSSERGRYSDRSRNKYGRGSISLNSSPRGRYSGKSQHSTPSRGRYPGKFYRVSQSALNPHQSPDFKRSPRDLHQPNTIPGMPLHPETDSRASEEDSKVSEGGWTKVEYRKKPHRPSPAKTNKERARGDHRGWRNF
Chain of kinases in BCWM.1 cells (Homo sapiens, UniProt Q9Y2H1) (Q9Y2H1 2-464 limits assumed): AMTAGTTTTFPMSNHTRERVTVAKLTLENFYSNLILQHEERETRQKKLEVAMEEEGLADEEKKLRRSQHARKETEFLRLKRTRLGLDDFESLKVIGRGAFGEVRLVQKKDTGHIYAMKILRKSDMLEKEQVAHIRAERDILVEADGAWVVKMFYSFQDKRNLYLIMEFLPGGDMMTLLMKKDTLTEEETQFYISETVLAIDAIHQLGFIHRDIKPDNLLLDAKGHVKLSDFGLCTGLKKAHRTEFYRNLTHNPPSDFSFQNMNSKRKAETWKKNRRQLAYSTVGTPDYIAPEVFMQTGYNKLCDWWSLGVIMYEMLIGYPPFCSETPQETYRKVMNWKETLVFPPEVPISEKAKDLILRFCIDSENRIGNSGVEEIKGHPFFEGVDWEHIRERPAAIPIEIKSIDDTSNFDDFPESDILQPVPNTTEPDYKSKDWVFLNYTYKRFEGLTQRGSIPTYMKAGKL

CCC(=O)N1CC[C@H](Nc2nccc(Nc3ncc(C(=O)Nc4c(C)cccc4C)s3)n2)C1 [Example I-9] was tested, and the “% change of MS signal compared to control sample” value (“% change of MS signal” for short) (kinases in BCWM.1 cells [1]) was 18.5%, the “% change of MS signal” value (kinases in BCWM.1 cells [2]) was −4.2% and the “% change of MS signal” value (kinases in BCWM.1 cells [3]) was −2.1%. The “% change of MS signal” value (kinases in BCWM.1 cells [4]) was −0.9%, the “% change of MS signal” value (kinases in BCWM.1 cells [5]) was −2.3% and the “% change of MS signal” value (kinases in BCWM.1 cells [6]) was 4%. The “% change of MS signal” value (kinases in BCWM.1 cells [7]) was −16.8%, the “% change of MS signal” value (kinases in BCWM.1 cells [8]) was −5.8% and the “% change of MS signal” value (kinases in BCWM.1 cells [9]) was −4.1%. The “% change of MS signal” value (kinases in BCWM.1 cells [10]) was 12.7%, the “% change of MS signal” value (kinases in BCWM.1 cells [11]) was 4.3% and the “% change of MS signal” value (kinases in BCWM.1 cells [12]) was 51.8%. The “% change of MS signal” value (kinases in BCWM.1 cells [13]) was −9.4%, the “% change of MS signal” value (kinases in BCWM.1 cells [14]) was −6.6% and the “% change of MS signal” value (kinases in BCWM.1 cells [15]) was −4.6%. For the same compound, the “% change of MS signal” value (kinases in BCWM.1 cells [16]) was −8.6%, the “% change of MS signal” value (kinases in BCWM.1 cells [17]) was 11.4% and the “% change of MS signal” value (kinases in BCWM.1 cells [18]) was 16.1%. For the same compound, the “% change of MS signal” value (kinases in BCWM.1 cells [19]) was 12.1%, the “% change of MS signal” value (kinases in BCWM.1 cells [20]; ABL, ARG, Activation Loop) was 46.1% and 75.4% and the “% change of MS signal” value (kinases in BCWM.1 cells [20]; ABL, ARG, Lys1) was 40.6% and 71.8%. For the same compound, the “% change of MS signal” value (kinases in BCWM.1 cells [20]; AurA, AurB, AurC, ATP Loop) was 5.5% and 2.8%, the “% change of MS signal” value (kinases in BCWM.1 cells [20]; CK1g1, CK1g2, CK1g3, ATP Loop) was −8.2% and −4.7% and the “% change of MS signal” value (kinases in BCWM.1 cells [20]; FYN, SRC, YES, Activation Loop) was 72.5% and 80.4%. The “% change of MS signal” value (kinases in BCWM.1 cells [20]; JNK1, JNK2, JNK3, Lys2) was −7% and 0.5%, the “% change of MS signal” value (kinases in BCWM.1 cells [20]; KSR1, KSR2, Activation Loop) was −14.6% and −16.2% and the “% change of MS signal” value (kinases in BCWM.1 cells [20]; MAP2K1, MAP2K2, Lys1) was −9.2% and −1.1%. For the same compound, the “% change of MS signal” value (kinases in BCWM.1 cells [20]; MAP2K1, MAP2K2, Lys2) was −6.4% and −4.5%, the “% change of MS signal” value (kinases in BCWM.1 cells [20]; MAP3K2, MAP3K3, Lys2) was 0.7% and 6.8% and the “% change of MS signal” value (kinases in BCWM.1 cells [20]; MARK3, MARK4, Lys1) was −10.4% and −7.1%. The “% change of MS signal” value (kinases in BCWM.1 cells [20]; MER, TYRO3, Activation Loop) was −14.7%, the “% change of MS signal” value (kinases in BCWM.1 cells [20]; MST4, YSK1, Lys2, 90 min) was 15.2% and the “% change of MS signal” value (kinases in BCWM.1 cells [20]; NEK6, NEK7, Lys2, 90 min) was −0.8%. The “% change of MS signal” value (kinases in BCWM.1 cells [20]; PCTAIRE2, PCTAIRE3, Lys1, 90 min) was −0.8%, the “% change of MS signal” value (kinases in BCWM.1 cells [20]; PI4KA, PI4KAP2, ATP, 90 min) was 3.6% and the “% change of MS signal” value (kinases in BCWM.1 cells [20]; PKACa, PKCb, Lys2, 90 min) was 25.3%. The “% change of MS signal” value (kinases in BCWM.1 cells [20]; ROCK1, ROCK2, Lys2, 90 min) was 1.7%, the “% change of MS signal” value (kinases in BCWM.1 cells [20]; RSK1 domain1, RSK2 domain1, RSK3 domain1, Lys2, 90 min) was −6.1% and the “% change of MS signal” value (kinases in BCWM.1 cells [20]; SRPK1, SRPK2, Lys1, 90 min) was 2.5%. The “% change of MS signal” value (kinases in BCWM.1 cells [20]; TAO1, TAO3, Lys2, 90 min) was 9.3%, the “% change of MS signal” value (kinases in BCWM.1 cells [20]; Wnk1, Wnk2, Wnk3, Lys2, 90 min) was 4.4% and the “% change of MS signal” value (kinases in BCWM.1 cells [20]; Wnk1, Wnk2, ATP Loop, 90 min) was 7.6%. The “% change of MS signal” value (kinases in BCWM.1 cells [20]; ZC1/HGK, ZC2/TNIK, ZC3/MINK, Lys2, 90 min) was 1.8%, the “% change of MS signal” value (kinases in BCWM.1 cells [20]; p38d, p38g, Lys2, 90 min) was −27.1% and the “% change of MS signal” value (kinases in BCWM.1 cells [21]) was 2.9%. The “% change of MS signal” value (kinases in BCWM.1 cells [22]) was 9.6%, the “% change of MS signal” value (kinases in BCWM.1 cells [23]) was −26.2% and the “% change of MS signal” value (kinases in BCWM.1 cells [24]) was −1%. The “% change of MS signal” value (kinases in BCWM.1 cells [25]) was −1.7% and the “% change of MS signal” value (kinases in BCWM.1 cells [26]) was −3.1%.
